US7989176B2, “Treating cancer” (Theryte Ltd., priority 2002, dated 2011)

Assays:
[1] = system: HCT116 cells; assay: TUNEL assay for apoptosis (ApopTag kit); format: cell-based; settings: 48 h after transfection
Procedure: (§1) Sense and antisense phosphorothionate oligonucleotide with the sequence set out in SEQ1 and SEQ2 respectively were synthesised in a 380B DNA synthesiser. Each oligonucleotide was premixed with lipofectin reagent and diluted in DMEM (Gibco). 6 cm plates of HCT116 cells at 40-50% confluence were rinsed once with 4 ml serum free DMEM and transfected with the oligonucleotides at a final concentration of 1 μM and the lipofectin reagent at a final concentration of 19 μg/ml according to the manufacturer's instructions (Life Technologies Inc., Gaithersburg, Md.). After 4 hours, Foetal Calf Serum (Gibco) was added to a final concentration of 10%. A lipofectin only transfection was performed as a control. Cell extracts were harvested after 48 h and examined by Western blot analysis with a pRb antibody. Equal loading of protein samples was confirmed by Coomassie blue staining or by immunoreactivity with an anti-actin antibody (Sigma). The intensities of the Rb bands were quantised with an image scanner (Molecular Dynamics). […] The treatment with the sense oligonucleotide led to about a 5% reduction in the level of pRb. […] Apoptosis in the cultures 48 h after transfection was tested for using the TUNEL assay. An in situ apoptosis detection kit ApopTag (Oncor, Gaithersburg, Md.) was used as recommended by the manufacturer. […]

[2] = system: pRb; assay: Western blot analysis of pRb expression after oligonucleotide transfection; format: cell-based; settings: HCT116 cells, oligonucleotide 1 μM with lipofectin 19 μg/ml, extracts harvested after 48 h
Procedure: as §1

[3] = system: HCT116 cells; assay: Growth curves of transfected cultures; format: cell-based; settings: oligonucleotide 1 μM
Procedure: as §1

[4] = system: advanced gastric cancer; settings: completed phase II study, patients with advanced gastric cancer (Kaubisch et al. 2000); cited from earlier work

Compound | increase in apoptosis ([1]; versus lipofectin treated culture) [fold] | percentage of TUNEL positive cells ([1]; oligonucleotide 1 μM) | level of pRb expression relative to the control culture treated only with lipofectin [2] | effect on growth compared with the lipofectin-treated control culture [3] | clinical responses [4]
antisense oligonucleotide: antisense phosphorothionate oligonucleotide to Rb, sequence SEQ2: 5′ -GGTTTTGGGCGGCATGAC-3′ (DNA, all phosphorothioate, methylation of C not given here) | > 10 | 18+/−0.5% | about 30% | growth inhibition | –
CN1CC[C@H](c2c(O)cc(O)c3c(=O)cc(-c4ccccc4Cl)oc23)[C@H](O)C1 [flavopiridol] | – | – | – | – | no clinical responses were observed
